Like-named read-outs stand apart in the source and are kept apart here.
Legend:
[1] = system: P. falciparum W2 (chloroquine and pyrimethamine resistant); test: in vitro antimalarial activity against W2; type: cell-based; conditions: for times less active against W2: in comparison to reference compound 17; for antimalarial activity in words: W2; for EC50: Plasmodium falciparum; for fold decrease in antimalarial activity: W2, compared to compound 5
[2] = system: P. falciparum TM90-C2B (chloroquine, mefloquine, pyrimethamine and atovaquone resistant); test: in vitro antimalarial activity against TM90-C2B; type: cell-based; conditions: for antimalarial activity in words / fold decrease in antimalarial activity: TM90-C2B; for EC50: Plasmodium falciparum; for fold more potent against TM90-C2B: compared to compound 27; for fold decrease in antimalarial activity: compared to compound 5
[3] = system: P. berghei; conditions: rodent malaria models; cited from earlier work

Q: Which “times less active against W2” value [1] does the source give for `CCc1c(C)[nH]c2cc(OCCCN3CCN(c4ccccc4)CC3)c(Cl)cc2c1=O` [Compound 26] here?
A: The value was “approximately four-fold less active”.

Q: Which “times less active against W2” value [1] does the source give for `CCc1c(C)[nH]c2cc(OCOC)c(Cl)cc2c1=O` [Compound 20] here?
A: Its value is “approximately four-fold less active”.

Q: With `CCCCc1cc2c(=O)c(-c3c(C)noc3C)c(C)[nH]c2cc1OCCOc1ccccc1` [Compound 43] as the compound, how does the “antimalarial activity in words” value [2] read?
A: The value was “approximately five times less potent”.

Q: With `CCCCc1cc2c(=O)c(-c3ccncc3)c(C)[nH]c2cc1OCCOc1ccccc1` [Compound 32] as the compound, how does the “antimalarial activity in words” value [2] read?
A: Its value is “moderate activity in low μM or high nM range”.

Q: What about the “antimalarial activity in words” value [1] of the same compound?
A: Its value is “moderate activity in low μM or high nM range”.

Q: Which EC50 ([2]; TM90, read-out: EC50 TM90-C2B, Table 1, PEQ analogs) does the source give for `C[C@H]1[C@@H](O)O[C@@H]2O[C@@]3(C)CC[C@H]4[C@H](C)CC[C@@H]1[C@@]24OO3` [DHA, Dihydroartemisinin, reference compound] here?
A: The EC50 was 0.9 nM.

Q: And the EC50 ([2]; TM90, read-out: EC50 TM90-C2B, Table 2, 3-aryl PEQs)?
A: The EC50 was 0.9 nM.

Q: And the EC50 ([1]; W2, read-out: EC50 W2)?
A: The EC50 was 1.8 nM.

Q: For `CCCCc1cc2c(=O)c(-c3cccnc3)c(C)[nH]c2cc1OCCOc1ccccc1` [Compound 33], which “antimalarial activity in words” value [2] is on record?
A: Its value is “moderate activity in low μM or high nM range”.

Q: And the “antimalarial activity in words” value [1]?
A: The value was “moderate activity in low μM or high nM range”.

Q: With `CCc1c(C)[nH]c2cc(OCCOc3ccccc3)c(C)cc2c1=O` [Compound 18] as the compound, how does the “fold more potent against TM90-C2B” value [2] read?
A: The value was “approximately 3 fold”.

Q: With `CCCCc1cc2c(=O)c(C(=O)OC)c[nH]c2cc1OCCOc1ccccc1` [Compound 5, reference compound] as the compound, how does the “ED50, causal prophylactic and blood schizonticidal activity” value [3] read?
A: Its value is 0.05 mg/kg.

Q: What about the “fold stronger inhibition of W2 than TM90-C2B” value ([1]; W2 versus TM90-C2B) of the same compound?
A: Its value is “approximately 220 fold”.

Q: With `CCc1c(C)[nH]c2cc(OCCOc3ccccc3)c(OC)cc2c1=O` [Compound 19] as the compound, how does the “fold more potent against TM90-C2B” value [2] read?
A: Its value is “approximately 3 fold”.

Q: For `O=C1C(O)=C([C@H]2CC[C@H](c3ccc(Cl)cc3)CC2)C(=O)c2ccccc21` [ATO, atovaquone, reference compound], which EC50 ([1]; W2, read-out: EC50 W2, Table 1, PEQ analogs) is on record?
A: The EC50 was 0.53 nM.

Q: And the EC50 ([1]; W2, read-out: EC50 W2, Table 2, 3-aryl PEQs)?
A: The EC50 was 0.53 nM.

Q: With `CCCCc1cc2c(=O)cc(C)[nH]c2cc1OCCOc1ccccc1` [Compound 15] as the compound, how does the “fold decrease in antimalarial activity” value [2] read?
A: The value was 4 fold.

Q: And the “fold decrease in antimalarial activity” value [1]?
A: Its value is 4000 fold.

Q: Which “fold decrease in antimalarial activity” value [2] does the source give for `COC(=O)c1c[nH]c2cc(OC)c(Cl)cc2c1=O` [Compound 14] here?
A: Its value is ≥ 70 fold.

Q: What about the “fold decrease in antimalarial activity” value [1] of the same compound?
A: Its value is ≥ 70 fold.

From article PMC9247345 (Journal of medicinal chemistry, 2011)
